Series [1] concerns recombinant NL4-3 virus (nef section replaced with Renilla luciferase gene) in MT-2 cells. The series can be described thus: HIV cell culture assay (antiviral activity, luciferase readout). The class given is cell-based. The note with it: Renilla, NL43, MT-2 cells infected for 4-5 days with recombinant NL4-3 Renilla luciferase virus. The method, boiled down:
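MT-2 cells were infected for 4-5 days with reporter virus made by transfecting the recombinant NL4-3 proviral clone into 293T cells, in the presence of serial compound dilutions. Luciferase activity was read with a live-cell substrate. EC50 came from the exponential median effect equation, (Fa)=1/[1+(ED50/drug conc.)m].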

A short description of series [2]: Compound cytotoxicity, XTT-based colorimetric assay. It counts as cell-based. The note with it: human; uninfected MT2 cells, day 4, XTT; read-out: CC50. The method, boiled down: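 Cells seeded as for the antiviral assay but left uninfected (MT2). Compound exposure continued to day 4. XTT reagent added and colour read. CC50 calculated.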

With `Cc1cc(C2CCC(F)(F)CC2)nc2nc([C@H](Cc3cc(F)cc(F)c3)NC(=O)Cn3nc(C4CC4)c4c3C[C@@H]3C[C@H]43)n(-c3ccc(Cl)c4c(NS(C)(=O)=O)nn(CCN5CCC(C)(F)CC5)c34)c(=O)c12` (atropisomer, axis not shown; (P)) [Example 278, N-[(1S)-1-[(3P)-3-{4-chloro-1-[2-(4-fluoro-4-methylpiperidin-1-yl)ethyl]-3-methanesulfonamido-1H-indazol-7-yl}-7-(4,4-difluorocyclohexyl)-5-methyl-4-oxo-3H,4H-pyrido[2,3-d]pyrimidin-2-yl]-2-(3,5-difluorophenyl)ethyl]-2-[(2S,4S)-9-cyclopropyl-7,8-diazatricyclo[4.3.0.0^2,^4]nona-1(6),8-dien-7-yl]acetamide], in series [1], the EC50 was found to be 0.005 nM. Also, the CC50 at 4 days in series [2] is greater than 50 nM.
For the molecule `Cc1cc(C2CCC(F)(F)CC2)nc2nc([C@H](Cc3cc(F)cc(F)c3)NC(=O)Cn3nc(C4CC4)c4c3C[C@@H]3C[C@H]43)n(-c3ccc(Cl)c4c(NS(C)(=O)=O)nn(CC(=O)N5C[C@@H](C)O[C@@H](C)C5)c34)c(=O)c12` (atropisomer, axis not shown; (P)) [Example 384, N-[(1S)-1-[(3P)-3-(4-chloro-1-{2-[(2R,6S)-2,6-dimethylmorpholin-4-yl]-2-oxoethyl}-3-methanesulfonamido-1H-indazol-7-yl)-7-(4,4-difluorocyclohexyl)-5-methyl-4-oxo-3H,4H-pyrido[2,3-d]pyrimidin-2-yl]-2-(3,5-difluorophenyl)ethyl]-2-[(2S,4S)-9-cyclopropyl-7,8-diazatricyclo[4.3.0.0^2,^4]nona-1(6),8-dien-7-yl]acetamide], in series [1], the concentration for a half-maximal effect (EC50) worked out at 0.025 nM. In addition, the CC50 at 4 days in series [2] is greater than 20 nM.
As to `Cc1cc(C2(F)CCC(F)(F)CC2)nc2nc([C@H](Cc3cc(F)cc(F)c3)NC(=O)Cn3nc(C4CC4)c4c3C(F)(F)[C@@H]3C[C@H]43)n(-c3ccc(Cl)c4c(NS(C)(=O)=O)nn(CCN5C[C@@H](C)O[C@@H](C)C5)c34)c(=O)c12` (atropisomer, axis not shown; (P)) [Example 595, N-[(1S)-1-[(3P)-3-(4-chloro-1-{2-[(2R,6S)-2,6-dimethylmorpholin-4-yl]ethyl}-3-methanesulfonamido-1H-indazol-7-yl)-5-methyl-4-oxo-7-(1,4,4-trifluorocyclohexyl)-3H,4H-pyrido[2,3-d]pyrimidin-2-yl]-2-(3,5-difluorophenyl)ethyl]-2-[(2S,4R)-9-cyclopropyl-5,5-difluoro-7,8-diazatricyclo[4.3.0.0^2,^4]nona-1(6),8-dien-7-yl]acetamide], in series [1], the EC50 came to 0.014 nM. In addition, in series [2], the CC50 at 4 days is greater than 20 nM.
Turning to `CS(=O)(=O)Nc1nn(CCN2CC(C(F)F)C2)c2c(-n3c([C@H](Cc4cc(F)cc(F)c4)NC(=O)Cn4nc(C(F)F)c5c4C(F)(F)[C@@H]4C[C@H]54)nc4nc(C5CCC(F)(F)CC5)ccc4c3=O)ccc(Cl)c12` (atropisomer, axis not shown; (P)) [Example 160, N-[(1S)-1-[(3P)-3-(4-chloro-1-{2-[3-(difluoromethyl)azetidin-1-yl]ethyl}-3-methanesulfonamido-1H-indazol-7-yl)-7-(4,4-difluorocyclohexyl)-4-oxo-3H,4H-pyrido[2,3-d]pyrimidin-2-yl]-2-(3,5-difluorophenyl)ethyl]-2-[(2S,4R)-9-(difluoromethyl)-5,5-difluoro-7,8-diazatricyclo[4.3.0.0^2,^4]nona-1(6),8-dien-7-yl]acetamide], the EC50 in series [1] came to 0.023 nM. In series [2], the 50% cytotoxic concentration (CC50) at 4 days is greater than 50 nM.
On the same counts, the results for `Cc1cc(C2CCC(F)(F)CC2)nc2nc([C@H](Cc3cc(F)cc(F)c3)NC(=O)Cn3nc(C(F)F)c4c3C(F)(F)[C@@H]3C[C@H]43)n(-c3ccc(Cl)c4c(NS(C)(=O)=O)nn(CCN5C[C@H](F)C[C@H](F)C5)c34)c(=O)c12` (atropisomer, axis not shown; (P)) [Example 5, N-[(1S)-1-[(3P)-3-(4-chloro-1-{2-[(3R,5S)-3,5-difluoropiperidin-1-yl]ethyl}-3-methanesulfonamido-1H-indazol-7-yl)-7-(4,4-difluorocyclohexyl)-5-methyl-4-oxo-3H,4H-pyrido[2,3-d]pyrimidin-2-yl]-2-(3,5-difluorophenyl)ethyl]-2-[(2S,4R)-9-(difluoromethyl)-5,5-difluoro-7,8-diazatricyclo[4.3.0.0^2,4]nona-1(6),8-dien-7-yl]acetamide] are 0.009 nM and greater than 20000 nM.
As for `COCCCn1nc(NS(C)(=O)=O)c2c(Cl)ccc(-n3c([C@H](Cc4cc(F)cc(F)c4)NC(=O)Cn4nc(C(F)F)c5c4C(F)(F)[C@@H]4C[C@H]54)nc4nc(C5CCC(F)(F)CC5)cc(CN5CC(C(F)(F)F)C5)c4c3=O)c21` (atropisomer, axis not shown; (P)) [Example 605, N-[(1S)-1-[(3P)-3-[4-chloro-3-methanesulfonamido-1-(3-methoxypropyl)-1H-indazol-7-yl]-7-(4,4-difluorocyclohexyl)-4-oxo-5-{[3-(trifluoromethyl)azetidin-1-yl]methyl}-3H,4H-pyrido[2,3-d]pyrimidin-2-yl]-2-(3,5-difluorophenyl)ethyl]-2-[(2S,4R)-9-(difluoromethyl)-5,5-difluoro-7,8-diazatricyclo[4.3.0.0^2,^4]nona-1(6),8-dien-7-yl]acetamide], in series [1], the EC50 was 0.018 nM. For the same molecule, the CC50 at 4 days in series [2] was greater than 20 nM.
For the molecule `COCCCn1nc(NS(C)(=O)=O)c2c(Cl)ccc(-n3c([C@H](Cc4cc(F)cc(F)c4)NC(=O)Cn4nc(C(F)F)c5c4C(F)(F)[C@@H]4C[C@H]54)nc4nc(C5CCC(F)(F)CC5)cc(CN5C[C@@H](F)[C@@H](F)C5)c4c3=O)c21` (atropisomer, axis not shown; (P)) [Example 530, N-[(1S)-1-[(3P)-3-[4-chloro-3-methanesulfonamido-1-(3-methoxypropyl)-1H-indazol-7-yl]-7-(4,4-difluorocyclohexyl)-5-{[(3R,4S)-3,4-difluoropyrrolidin-1-yl]methyl}-4-oxo-3H,4H-pyrido[2,3-d]pyrimidin-2-yl]-2-(3,5-difluorophenyl)ethyl]-2-[(2S,4R)-9-(difluoromethyl)-5,5-difluoro-7,8-diazatricyclo[4.3.0.0^2,^4]nona-1(6),8-dien-7-yl]acetamide], the EC50 in series [1] worked out at 0.008 nM. The CC50 at 4 days in series [2] was greater than 20 nM.
On the same counts, the results for `Cc1cc(C2(F)CCC(F)(F)CC2)nc2nc([C@H](Cc3cc(F)cc(F)c3)NC(=O)Cn3nc(C4CC4)c4c3C[C@@H]3C[C@H]43)n(-c3ccc(Cl)c4c(NS(C)(=O)=O)nn(CCN5C[C@H](C)OC(C)(C)C5)c34)c(=O)c12` (atropisomer, axis not shown; (P)) [Example 583, N-[(1S)-1-[(3P)-3-(4-chloro-3-methanesulfonamido-1-{2-[(6S)-2,2,6-trimethylmorpholin-4-yl]ethyl}-1H-indazol-7-yl)-5-methyl-4-oxo-7-(1,4,4-trifluorocyclohexyl)-3H,4H-pyrido[2,3-d]pyrimidin-2-yl]-2-(3,5-difluorophenyl)ethyl]-2-[(2S,4S)-9-cyclopropyl-7,8-diazatricyclo[4.3.0.0^2,^4]nona-1(6),8-dien-7-yl]acetamide] are 0.031 nM and greater than 20 nM.
Take `CS(=O)(=O)Nc1nn(CCN2CCC(F)(F)C2)c2c(-n3c([C@H](Cc4cc(F)cc(F)c4)NC(=O)Cn4nc(C5CC5)c5c4C[C@@H]4C[C@H]54)nc4nc(C5CCC(F)(F)CC5)ccc4c3=O)ccc(Cl)c12` (atropisomer, axis not shown; (P)) [Example 24, N-[(1S)-1-[(3P)-3-{4-chloro-1-[2-(3,3-difluoropyrrolidin-1-yl)ethyl]-3-methanesulfonamido-1H-indazol-7-yl}-7-(4,4-difluorocyclohexyl)-4-oxo-3H,4H-pyrido[2,3-d]pyrimidin-2-yl]-2-(3,5-difluorophenyl)ethyl]-2-[(2S,4S)-9-cyclopropyl-7,8-diazatricyclo[4.3.0.0^2,^4]nona-1(6),8-dien-7-yl]acetamide]: in series [1], the EC50 worked out at 0.007 nM. Further, the CC50 at 4 days in series [2] is greater than 50 nM.
Regarding `COCCCn1nc(NS(C)(=O)=O)c2c(Cl)ccc(-n3c([C@H](Cc4cc(F)cc(F)c4)NC(=O)Cn4nc(C(F)F)c5c4C(F)(F)[C@@H]4C[C@H]54)nc4nc(C5CCC(F)(F)CC5)cc(NCCN5CC(F)(F)C5)c4c3=O)c21` (atropisomer, axis not shown; (P)) [Example 517, N-[(1S)-1-[(3P)-3-[4-chloro-3-methanesulfonamido-1-(3-methoxypropyl)-1H-indazol-7-yl]-5-{[2-(3,3-difluoroazetidin-1-yl)ethyl]amino}-7-(4,4-difluorocyclohexyl)-4-oxo-3H,4H-pyrido[2,3-d]pyrimidin-2-yl]-2-(3,5-difluorophenyl)ethyl]-2-[(2S,4R)-9-(difluoromethyl)-5,5-difluoro-7,8-diazatricyclo[4.3.0.0^2,^4]nona-1(6),8-dien-7-yl]acetamide], the 50% effective concentration (EC50) in series [1] turned out to be 0.009 nM. Also, in series [2], the cytotoxic concentration (CC50) at 4 days was greater than 20 nM.
Turning to `COCCCn1nc(NS(C)(=O)=O)c2c(Cl)ccc(-n3c([C@H](Cc4cc(F)cc(F)c4)NC(=O)Cn4nc(C(F)F)c5c4C(F)(F)[C@@H]4C[C@H]54)nc4nc(C5CCC(F)(F)CC5)cc(NCCN5CCOC(C)(C)C5)c4c3=O)c21` (atropisomer, axis not shown; (P)) [Example 476, N-[(1S)-1-[(3P)-3-[4-chloro-3-methanesulfonamido-1-(3-methoxypropyl)-1H-indazol-7-yl]-7-(4,4-difluorocyclohexyl)-5-{[2-(2,2-dimethylmorpholin-4-yl)ethyl]amino}-4-oxo-3H,4H-pyrido[2,3-d]pyrimidin-2-yl]-2-(3,5-difluorophenyl)ethyl]-2-[(2S,4R)-9-(difluoromethyl)-5,5-difluoro-7,8-diazatricyclo[4.3.0.0^2,^4]nona-1(6),8-dien-7-yl]acetamide], in series [1], the half-maximal effective concentration (EC50) came to 0.005 nM. Besides, the CC50 at 4 days in series [2] is greater than 20 nM.
